{
  "source": "the NIST ThermoML archive (doi:10.1016/j.jct.2004.07.027)",
  "assay": "mn = molality of the nth substance listed, in mol/kg",
  "conditions": "350 kPa, Liquid, Extra sensitive DSC",
  "note": "± gives the expanded uncertainty stated by the source.",
  "data": [
    {"smiles": "C1COCCOCCOCCOCCOCCO1", "note": "[1,4,7,10,13,16-hexaoxacyclooctadecane] + O", "values": [
      {"measurement": "apparent molar heat capacity", "setting": "308.15 K, m1 = 0.01001", "result": "852.1 ± 9.3", "unit": "J/K/mol"},
      {"measurement": "apparent molar heat capacity", "setting": "308.15 K, m1 = 0.02001", "result": "847.8 ± 4.3", "unit": "J/K/mol"},
      {"measurement": "apparent molar heat capacity", "setting": "308.15 K, m1 = 0.03002", "result": "848.2 ± 2.9", "unit": "J/K/mol"},
      {"measurement": "apparent molar heat capacity", "setting": "308.15 K, m1 = 0.0401", "result": "852.3 ± 2.3", "unit": "J/K/mol"},
      {"measurement": "apparent molar heat capacity", "setting": "308.15 K, m1 = 0.04995", "result": "853.8 ± 1.9", "unit": "J/K/mol"},
      {"measurement": "apparent molar heat capacity", "setting": "308.15 K, m1 = 0.06015", "result": "853.6 ± 1.5", "unit": "J/K/mol"},
      {"measurement": "apparent molar heat capacity", "setting": "308.15 K, m1 = 0.08002", "result": "852.2 ± 1.1", "unit": "J/K/mol"},
      {"measurement": "apparent molar heat capacity", "setting": "308.15 K, m1 = 0.1224", "result": "851.14 ± 0.77", "unit": "J/K/mol"},
      {"measurement": "apparent molar heat capacity", "setting": "308.15 K, m1 = 0.1472", "result": "850.86 ± 0.75", "unit": "J/K/mol"},
      {"measurement": "apparent molar heat capacity", "setting": "308.15 K, m1 = 0.1935", "result": "849 ± 0.61", "unit": "J/K/mol"},
      {"measurement": "apparent molar heat capacity", "setting": "308.15 K, m1 = 0.2925", "result": "846.24 ± 0.43", "unit": "J/K/mol"},
      {"measurement": "apparent molar heat capacity", "setting": "313.15 K, m1 = 0.01001", "result": "866.4 ± 9", "unit": "J/K/mol"},
      {"measurement": "apparent molar heat capacity", "setting": "313.15 K, m1 = 0.02001", "result": "862 ± 4.3", "unit": "J/K/mol"},
      {"measurement": "apparent molar heat capacity", "setting": "313.15 K, m1 = 0.03002", "result": "862.5 ± 2.9", "unit": "J/K/mol"},
      {"measurement": "apparent molar heat capacity", "setting": "313.15 K, m1 = 0.0401", "result": "867.6 ± 2.3", "unit": "J/K/mol"},
      {"measurement": "apparent molar heat capacity", "setting": "313.15 K, m1 = 0.04995", "result": "868.8 ± 1.8", "unit": "J/K/mol"},
      {"measurement": "apparent molar heat capacity", "setting": "313.15 K, m1 = 0.06015", "result": "868.4 ± 1.5", "unit": "J/K/mol"},
      {"measurement": "apparent molar heat capacity", "setting": "313.15 K, m1 = 0.08002", "result": "867.4 ± 1.2", "unit": "J/K/mol"},
      {"measurement": "apparent molar heat capacity", "setting": "313.15 K, m1 = 0.1224", "result": "866.13 ± 0.76", "unit": "J/K/mol"},
      {"measurement": "apparent molar heat capacity", "setting": "313.15 K, m1 = 0.1472", "result": "866.03 ± 0.71", "unit": "J/K/mol"},
      {"measurement": "apparent molar heat capacity", "setting": "313.15 K, m1 = 0.1935", "result": "864.46 ± 0.66", "unit": "J/K/mol"},
      {"measurement": "apparent molar heat capacity", "setting": "313.15 K, m1 = 0.2925", "result": "862.08 ± 0.46", "unit": "J/K/mol"},
      {"measurement": "apparent molar heat capacity", "setting": "318.15 K, m1 = 0.01001", "result": "881.2 ± 9.1", "unit": "J/K/mol"},
      {"measurement": "apparent molar heat capacity", "setting": "318.15 K, m1 = 0.02001", "result": "875.7 ± 4.2", "unit": "J/K/mol"},
      {"measurement": "apparent molar heat capacity", "setting": "318.15 K, m1 = 0.03002", "result": "875.9 ± 2.8", "unit": "J/K/mol"},
      {"measurement": "apparent molar heat capacity", "setting": "318.15 K, m1 = 0.0401", "result": "881.8 ± 2.3", "unit": "J/K/mol"},
      {"measurement": "apparent molar heat capacity", "setting": "318.15 K, m1 = 0.04995", "result": "882.5 ± 1.8", "unit": "J/K/mol"},
      {"measurement": "apparent molar heat capacity", "setting": "318.15 K, m1 = 0.06015", "result": "882.3 ± 1.6", "unit": "J/K/mol"},
      {"measurement": "apparent molar heat capacity", "setting": "318.15 K, m1 = 0.08002", "result": "881.7 ± 1.2", "unit": "J/K/mol"},
      {"measurement": "apparent molar heat capacity", "setting": "318.15 K, m1 = 0.1224", "result": "880.23 ± 0.79", "unit": "J/K/mol"},
      {"measurement": "apparent molar heat capacity", "setting": "318.15 K, m1 = 0.1472", "result": "880.31 ± 0.7", "unit": "J/K/mol"},
      {"measurement": "apparent molar heat capacity", "setting": "318.15 K, m1 = 0.1935", "result": "878.85 ± 0.65", "unit": "J/K/mol"},
      {"measurement": "apparent molar heat capacity", "setting": "318.15 K, m1 = 0.2925", "result": "876.99 ± 0.45", "unit": "J/K/mol"},
      {"measurement": "apparent molar heat capacity", "setting": "323.15 K, m1 = 0.01001", "result": "893 ± 8.8", "unit": "J/K/mol"},
      {"measurement": "apparent molar heat capacity", "setting": "323.15 K, m1 = 0.02001", "result": "888.8 ± 4.2", "unit": "J/K/mol"},
      {"measurement": "apparent molar heat capacity", "setting": "323.15 K, m1 = 0.03002", "result": "888.4 ± 2.8", "unit": "J/K/mol"},
      {"measurement": "apparent molar heat capacity", "setting": "323.15 K, m1 = 0.0401", "result": "894.9 ± 2.2", "unit": "J/K/mol"},
      {"measurement": "apparent molar heat capacity", "setting": "323.15 K, m1 = 0.04995", "result": "895.6 ± 1.8", "unit": "J/K/mol"},
      {"measurement": "apparent molar heat capacity", "setting": "323.15 K, m1 = 0.06015", "result": "895.5 ± 1.5", "unit": "J/K/mol"},
      {"measurement": "apparent molar heat capacity", "setting": "323.15 K, m1 = 0.08002", "result": "894.7 ± 1.2", "unit": "J/K/mol"},
      {"measurement": "apparent molar heat capacity", "setting": "323.15 K, m1 = 0.1224", "result": "893.76 ± 0.74", "unit": "J/K/mol"},
      {"measurement": "apparent molar heat capacity", "setting": "323.15 K, m1 = 0.1472", "result": "893.83 ± 0.69", "unit": "J/K/mol"},
      {"measurement": "apparent molar heat capacity", "setting": "323.15 K, m1 = 0.1935", "result": "892.3 ± 0.64", "unit": "J/K/mol"},
      {"measurement": "apparent molar heat capacity", "setting": "323.15 K, m1 = 0.2925", "result": "890.8 ± 0.44", "unit": "J/K/mol"},
      {"measurement": "apparent molar heat capacity", "setting": "328.15 K, m1 = 0.01001", "result": "904.7 ± 8.3", "unit": "J/K/mol"},
      {"measurement": "apparent molar heat capacity", "setting": "328.15 K, m1 = 0.02001", "result": "900.1 ± 4.1", "unit": "J/K/mol"},
      {"measurement": "apparent molar heat capacity", "setting": "328.15 K, m1 = 0.03002", "result": "900.3 ± 2.8", "unit": "J/K/mol"},
      {"measurement": "apparent molar heat capacity", "setting": "328.15 K, m1 = 0.0401", "result": "907.2 ± 2.1", "unit": "J/K/mol"},
      {"measurement": "apparent molar heat capacity", "setting": "328.15 K, m1 = 0.04995", "result": "907.7 ± 1.7", "unit": "J/K/mol"},
      {"measurement": "apparent molar heat capacity", "setting": "328.15 K, m1 = 0.06015", "result": "907.3 ± 1.5", "unit": "J/K/mol"},
      {"measurement": "apparent molar heat capacity", "setting": "328.15 K, m1 = 0.08002", "result": "906.8 ± 1.1", "unit": "J/K/mol"},
      {"measurement": "apparent molar heat capacity", "setting": "328.15 K, m1 = 0.1224", "result": "905.99 ± 0.73", "unit": "J/K/mol"},
      {"measurement": "apparent molar heat capacity", "setting": "328.15 K, m1 = 0.1472", "result": "906.11 ± 0.7", "unit": "J/K/mol"},
      {"measurement": "apparent molar heat capacity", "setting": "328.15 K, m1 = 0.1935", "result": "904.68 ± 0.61", "unit": "J/K/mol"},
      {"measurement": "apparent molar heat capacity", "setting": "328.15 K, m1 = 0.2925", "result": "903.37 ± 0.42", "unit": "J/K/mol"},
      {"measurement": "apparent molar heat capacity", "setting": "333.15 K, m1 = 0.01001", "result": "915.3 ± 8.1", "unit": "J/K/mol"},
      {"measurement": "apparent molar heat capacity", "setting": "333.15 K, m1 = 0.02001", "result": "910.7 ± 4.1", "unit": "J/K/mol"},
      {"measurement": "apparent molar heat capacity", "setting": "333.15 K, m1 = 0.03002", "result": "911 ± 2.8", "unit": "J/K/mol"},
      {"measurement": "apparent molar heat capacity", "setting": "333.15 K, m1 = 0.0401", "result": "918.1 ± 2", "unit": "J/K/mol"},
      {"measurement": "apparent molar heat capacity", "setting": "333.15 K, m1 = 0.04995", "result": "918.5 ± 1.7", "unit": "J/K/mol"},
      {"measurement": "apparent molar heat capacity", "setting": "333.15 K, m1 = 0.06015", "result": "918 ± 1.5", "unit": "J/K/mol"},
      {"measurement": "apparent molar heat capacity", "setting": "333.15 K, m1 = 0.08002", "result": "917.5 ± 1.1", "unit": "J/K/mol"},
      {"measurement": "apparent molar heat capacity", "setting": "333.15 K, m1 = 0.1224", "result": "916.74 ± 0.72", "unit": "J/K/mol"},
      {"measurement": "apparent molar heat capacity", "setting": "333.15 K, m1 = 0.1472", "result": "917.09 ± 0.69", "unit": "J/K/mol"},
      {"measurement": "apparent molar heat capacity", "setting": "333.15 K, m1 = 0.1935", "result": "915.79 ± 0.6", "unit": "J/K/mol"},
      {"measurement": "apparent molar heat capacity", "setting": "333.15 K, m1 = 0.2925", "result": "914.65 ± 0.41", "unit": "J/K/mol"}
    ]}
  ]
}
